From publication PMC11474946, “Role of DNA Double-Strand Break Formation in Gyrase Inhibitor-Mediated Killing of Nonreplicating Persistent Mycobacterium tuberculosis in Caseum” (ACS Infectious Diseases, 2024)
pEC50: −log10 of the molar value. Read-outs that look alike come from different tables or passages of the source.

Target: T1, M. tuberculosis gyrase (MTB DNA gyrase) (Mycobacterium tuberculosis, UniProt P9WG45+P9WG47)
T1 construct: gene gyrA
Experiment: DNA supercoiling inhibition, relaxed pBR322, agarose gel
Assay type: biochemical

T1 sequence (P9WG47 2-838): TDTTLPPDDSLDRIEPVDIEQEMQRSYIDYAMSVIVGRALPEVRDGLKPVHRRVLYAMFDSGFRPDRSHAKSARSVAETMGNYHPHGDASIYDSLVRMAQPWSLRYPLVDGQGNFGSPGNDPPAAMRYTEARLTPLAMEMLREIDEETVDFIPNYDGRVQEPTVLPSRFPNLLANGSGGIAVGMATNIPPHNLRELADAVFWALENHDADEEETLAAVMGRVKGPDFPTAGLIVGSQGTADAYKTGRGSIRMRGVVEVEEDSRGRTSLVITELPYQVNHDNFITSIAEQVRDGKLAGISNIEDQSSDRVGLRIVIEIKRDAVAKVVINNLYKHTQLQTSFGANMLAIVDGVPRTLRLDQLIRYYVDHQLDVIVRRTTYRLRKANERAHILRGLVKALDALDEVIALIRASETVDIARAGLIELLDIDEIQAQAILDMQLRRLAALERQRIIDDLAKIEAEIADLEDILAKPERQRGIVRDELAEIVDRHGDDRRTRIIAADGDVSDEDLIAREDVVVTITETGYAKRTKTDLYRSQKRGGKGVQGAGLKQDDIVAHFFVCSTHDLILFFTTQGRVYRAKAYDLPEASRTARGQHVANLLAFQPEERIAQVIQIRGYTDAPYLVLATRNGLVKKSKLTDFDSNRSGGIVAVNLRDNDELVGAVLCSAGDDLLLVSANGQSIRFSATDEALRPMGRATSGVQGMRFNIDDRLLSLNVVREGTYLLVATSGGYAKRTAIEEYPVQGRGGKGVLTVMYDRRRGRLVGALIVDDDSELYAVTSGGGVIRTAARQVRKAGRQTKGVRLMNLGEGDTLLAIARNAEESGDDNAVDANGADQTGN
T1 sequence (P9WG45 whole entry): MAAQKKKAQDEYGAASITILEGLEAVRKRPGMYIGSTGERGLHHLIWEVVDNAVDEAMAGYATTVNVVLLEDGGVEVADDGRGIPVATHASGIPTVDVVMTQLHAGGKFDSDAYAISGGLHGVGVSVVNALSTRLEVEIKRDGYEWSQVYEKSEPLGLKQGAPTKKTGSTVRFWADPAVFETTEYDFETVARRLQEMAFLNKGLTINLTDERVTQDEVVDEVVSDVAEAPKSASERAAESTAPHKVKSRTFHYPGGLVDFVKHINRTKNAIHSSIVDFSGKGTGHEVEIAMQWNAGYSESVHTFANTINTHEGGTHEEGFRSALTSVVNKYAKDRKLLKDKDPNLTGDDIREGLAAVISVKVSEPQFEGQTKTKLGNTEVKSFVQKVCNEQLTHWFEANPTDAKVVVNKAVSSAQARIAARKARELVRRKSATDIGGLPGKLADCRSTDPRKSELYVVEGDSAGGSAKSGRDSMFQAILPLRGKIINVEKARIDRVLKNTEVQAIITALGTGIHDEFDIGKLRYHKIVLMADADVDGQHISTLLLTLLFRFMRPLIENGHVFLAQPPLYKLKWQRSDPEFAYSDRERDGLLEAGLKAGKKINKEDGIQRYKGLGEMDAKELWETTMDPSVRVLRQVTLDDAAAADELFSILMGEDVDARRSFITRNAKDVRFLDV

Row | Molecule | pEC50 | pEC50 (37 °C, 30 min, relaxed pBR322)
1 | COc1c(N2CCNC(C)C2)c(F)cc2c(=O)c(C(=O)O)cn(C3CC3)c12 (stereo not drawn) [Gatifloxacin] | 5.30 | 
2 | C[C@H]1COc2c(N3CCN(C)CC3)c(F)cc3c(=O)c(C(=O)O)cn1c23 [Levofloxacin] | 5.00 | 
3 | N[C@@H]1CN(c2c(F)cc3c(=O)c(C(=O)O)cn([C@@H]4C[C@@H]4F)c3c2Cl)CC12CC2 [Sitafloxacin] | 6.00 | 
4 | CCNC(=O)Nc1nc2cc(-c3cnc(C(C)(C)O)nc3)c(F)c([C@H]3CCCO3)c2[nH]1 [SPR719] | 6.52 | 
5 | EC/11716 |  | 7.00
6 | Nc1nc(-n2cc(C(=O)O)c(=O)c3cc(F)c(N4CC(O)C4)c(Cl)c32)c(F)cc1F [Delafloxacin] | 4.64 | 
